We go through 8 compounds from patent publication US10718028B2, “Fluorescent probes for abasic site detection” (CASE WESTERN RESERVE UIVERSITY, priority 2015, dated 2020).

The nature of series [1]: Absorption and emission spectra of AP site binding probes in ethanol. The class given is physicochemical. How it is done: NMR spectra were recorded on a Varian Mercury 300 MHz, a Varian Inova 400, and a Varian Inova 600 MHz spectrometer at room temperature, except where otherwise noted. Chemical shifts for 1H NMR were reported as 6, parts per million, and referenced to CHCl3 at 7.26 ppm or TMS at 0 ppm. Chemical shifts for ^13C NMR were reported as 6 and referenced to the center line of the CDCl3 triplet at 77.0 ppm or CH2Cl2 pentet at 54.0 ppm. Low resolution mass spectra were recorded on a ThermoScientific LCQ Advantage or a Finnigan LCQ Deca mass spectrometer. Fluorescence data were collected on a Varian Cary Eclipse fluorescence spectrophotometer in a quartz cuvette with a 1 cm pathlength or on a Tecan Infinite M200 scanner. Absorbance data were collected on a Varian Cary 50 Bio UV-Visible Spectrophotometer in a quartz cuvette with a 1 cm path length.
To characterize the fluorescent properties, the absorption and emission spectra were collected for all final compounds.

The next series in a line: Aqueous solubility. The class given is physicochemical.
Another series has as its system AP DNA. As to the kind of experiment: SSB activity assay, dose-response of AP site binding probes. It is filed as biochemical. The conditions noted are these: 5 pmol AP DNA, FIG. 1. How it is done:
FIG. 1 illustrates SSB activity assay is used to compare the dose-response of AP site binding probes in 5 pmol of AP DNA. Mean and standard deviation of triplicate samples are shown for each concentration.
The single strand break (SSB) assay was proposed as a quick, facile tool to screen AP site binding probes. Therefore, the assay was performed on novel AP site binding probes described above and the commercially available AP site binding probe, F422. […] The reduced response of F422 and DansylMX may be due in part to the compounds being fairly electron rich near the aminooxy binding moiety. This could lead to a Coulombic repulsion with the DNA phosphate backbone.
SSB activity assays were performed on a 40-mer duplex DNA synthesized by IDT with the sequence:
SSB Activity Assay Control Reactions

The conditions of series [2]: in EtOH; cited from earlier work.
The conditions of series [3]: in EtOH; cited from earlier work. This is another data set of the same source.
In series [4] the test system is AP sites in calf thymus DNA. Briefly: MX or ARP and Cy7MX genomic DNA competition assay. It is filed as binding. How it is done: Calf thymus DNA was purchased from Sigma and was reconstituted overnight at 4° C. in either H2O or 500 mM MX (to eliminate basal AP sites) with gentle shaking (1.5 mL water or solution per 5 mg DNA). For samples reconstituted in MX solution, an ethanol precipitation was performed twice before heat and acid treatment (vide infra) then reconstituted in water. The DNA-water solution was aliquoted to 1.5 mL Eppendorf tubes (360 μL) and 10× Citrate buffer (1M NaCl, 100 μM monosodium phosphate, 100 μM monosodium citrate, pH 5.0) was added to a final concentration of 1×. For t=0 min samples, ice-cold 100% EtOH (1.0 mL) was added immediately and the Eppendorf tubes stored at −20° C. Other samples were placed in a 70° C. heating block for 15-90 minutes in 15-minute increments. Samples were removed from heat, precipitated in ice-cold 100% EtOH (1.0 mL), and then chilled at −20° C. for at least 20 minutes. Samples were centrifuged at 12,000×G for 10 min at 4° C. The supernatant was discarded. The process was repeated once beginning with the addition of EtOH (1.0 mL). The DNA pellet was dissolved in 700 μL H2O or TE buffer. Aliquots of 80 μL were put in 1.5 mL Eppendorf tubes. Any samples not used immediately were stored at −80° C.
Solutions of MX and Cy7MX were prepared in H2O varying [MX] from 0-1.9 M and maintaining at 25 μM. […] The ratios of MX:Cy7MX used in this study were: 0, 0.01, 0.1, 0.5, 1, 5, 10, 50, 100, 250, 500, 1000, 2500, 5000, 10000, 25000, 50000, and 75000. […] The following samples were prepared in triplicate: 20 μL of MX/Cy7MX solution was added to 80 μL aliquots of heat/acid treated DNA (t=45 min). Samples were incubated for 1 h at 37° C. in the dark. Ice-cold EtOH (1.0 mL) was added and the DNA was purified by EtOH precipitation three times as described in the heat/acid treatment of genomic DNA section. DNA was dissolved in 150 μL H2O. Aliquots (125 μL) of the samples were added to a black, clear-bottom 96 well plate (Corning) and analyzed with 750 nm excitation and 800 nm emission. Fluorescence was adjusted to DNA concentration.
As before (section 2.3.2) except solutions of ARP and Cy7MX were prepared in H2O varying [ARP] from 0-75 mM and maintaining at 1 μM. The ratios of ARP: Cy7MX used in this study were: 0, 0.1, 1, 10, 100, 500, 1000, 5000, 10000, 25000, 50000, and 75000.

Series [5] deals with AP sites in calf thymus DNA. Briefly: MX and Cy7MX genomic DNA blocking assay. The class given is binding. The conditions noted are these: DNA pretreated with large excess of MX (1000×). How it is done:
FIG. 10 illustrates fluorescence response and MX blocking of Cy7MX. Calf thymus DNA treated with heat and acid for increments of 15 min to give a linear relative number of AP sites. AP DNA was then pretreated with MX (50 mM, +MX) or NaCl (50 mM, −MX) followed by incubation with Cy7MX (0.05 mM). Fluorescence measures show a linear response to Cy7MX when not blocked by MX.
Calf thymus DNA was purchased from Sigma and was reconstituted overnight at 4° C. in either H2O or 500 mM MX (to eliminate basal AP sites) with gentle shaking (1.5 mL water or solution per 5 mg DNA). For samples reconstituted in MX solution, an ethanol precipitation was performed twice before heat and acid treatment (vide infra) then reconstituted in water. The DNA-water solution was aliquoted to 1.5 mL Eppendorf tubes (360 μL) and 10× Citrate buffer (1M NaCl, 100 μM monosodium phosphate, 100 μM monosodium citrate, pH 5.0) was added to a final concentration of 1×. For t=0 min samples, ice-cold 100% EtOH (1.0 mL) was added immediately and the Eppendorf tubes stored at −20° C. […]
To 80 μL aliquots of DNA was added either 10 μL of MX (500 mM, pH 7) or vehicle control (500 mM NaCl). […] Aliquots (125 μL) of the samples were added to a black, clear-bottom 96 well plate (Corning) and analyzed with 700 nm excitation and 790 nm emission. Fluorescence was adjusted to DNA concentration.

Consider `NOCCCOc1ccc2cc(-c3ccc(N)cc3)c(=O)oc2c1` [ACMX, 7-(3-(aminooxy)propoxy)-3-(4-aminophenyl)-2H-chromen-2-one], for which, in series [1], the Stokes shift was 80 nm, the λabs max is recorded as 370 nm and the λem max is recorded as 450 nm. For the same compound, the aqueous solubility result in “Aqueous solubility” is “poor aqueous solubility”.

Consider `CCCN1/C(=C/C=C(/C=C/C2=[N+](CCC)c3ccccc3C2(C)C)c2ccc(C(=O)NCCCON)cn2)C(C)(C)c2ccccc21` [Cy5MX, 2-((1E,3Z)-3-(5-((3-(aminooxy)propyl)carbamoyl)pyridin-2-yl)-5-((E)-3,3-dimethyl-1-propylindolin-2-ylidene)penta-1,3-dien-1-yl)-3,3-dimethyl-1-propyl-3H-indol-1-ium 2,2,2-trifluoroacetate], for which, in series [1], the Stokes shift is given as 20 nm, the λabs max is given as 640 nm and the λem max is 660 nm. Also, the “dose-response and overall efficacy in SSB assay” value with AP DNA is “acceptable dose-response and overall efficacy”.

For the compound `CN(C)c1cccc2c(S(=O)(=O)NOCCCON)cccc12` [DansylMX, N-(3-(aminooxy)propoxy)-5-(dimethylamino)naphthalene-1-sulfonamide], in series [1], the Stokes shift amounted to 200 nm, the λabs max is 340 nm and the λem max turned out to be 540 nm. In the series on AP DNA, the “dose-response and overall efficacy in SSB assay” value is listed as “unacceptable dose-response”; the “overall reduction in SSB activity” value is recorded as “ca. 60%”.

For the compound `CC1(C)C(/C=C/C=C/C=C/C=C2\N(CCCCS(=O)(=O)O)c3ccc4ccccc4c3C2(C)C)=[N+](CCCCS(=O)(=O)[O-])c2ccc3ccccc3c21` [ICG, indocyanine green], in series [2], the “fluorescence quantum yield of the standard” value is 0.132. In series [3], the “fluorescence quantum yield Φ of the standard” value is reported as 0.132.

With `Cc1cc(=O)oc2cc(OCCCON)ccc12` [MCMX, 7-(3-(aminooxy)propoxy)-4-methyl-2H-chromen-2-one], in series [1], the Stokes shift turned out to be 50 nm, the λabs max was found to be 325 nm and the λem max is 375 nm. In the series on AP DNA, the “dose-response and overall efficacy in SSB assay” value was “superior to the other probes assayed in dose-response and overall efficacy”.

For the compound `CON` [MX, methoxyamine], in series [4] (1 h at 37° C., constant Cy7MX), the “ED50 of Cy7MX, excess of competitor” value was determined as 3000 × excess. Also, the “ED50, molar ratio of probe to Cy7MX” value in series [4] (calf thymus DNA heat/acid 45 min, FIG. 13) was 3000 fold excess. Moreover, the “Cy7MX fluorescent intensity after pretreatment (blocking)” value in series [5] was “significantly reduced”.

Regarding `NOCCCOc1ccc2cc(-c3ccc([N+](=O)[O-])cc3)c(=O)oc2c1` [NpCMX, 7-(3-(aminooxy)propoxy)-3-(4-nitrophenyl)-2H-chromen-2-one], in series [1], the Stokes shift came to 185 nm, the λabs max turned out to be 365 nm and the λem max is 550 nm. Moreover, the “dose-response and overall efficacy in SSB assay” value in the series on AP DNA is “superior to the other probes assayed in dose-response and overall efficacy”.

For the compound `NNC(=S)Nc1ccc(-c2c3ccc(=O)cc-3oc3cc(O)ccc23)c(C(=O)O)c1` [Probe F422, reference compound], in the series with AP DNA, the “dose-response and overall efficacy in SSB assay” value is reported as “unacceptable dose-response”; the “overall reduction in SSB activity” value is listed as about 90%.
